Assay results from paper PMC4503722, “Novel Phenotypic Outcomes Identified for a Public Collection of Approved Drugs from a Publicly Accessible Panel of Assays” (PLoS ONE, 2015).

Tests used:
HCT116 = test: cells; assay type: cell-based; conditions: basal; for Basal_Viability ATP HCT116 IC50/EC50: assay number 25
[1] = test system: endothelial tube formation in co-cultures of ECFCs and ADSCs treated with VEGF; test: cells; assay type: cell-based, human
[2] = test system: HCT116 cells treated with a GSK3β inhibitor; test: cells; assay type: cell-based; conditions: for GSK3b inh pretreated_Viability ATP HCT116 IC50/EC50: assay number 26, GSK3b inhibitor pretreated
SW480 = test: cells; assay type: cell-based; conditions: basal; for Basal_Viability ATP SW480 IC50/EC50: assay number 24
Colo320 = test: cells; assay type: cell-based; conditions: basal; for Basal_Viability ATP Colo 320 IC50/EC50: assay number 27
RKO = test: cells; assay type: cell-based; conditions: basal; for Basal_Viability ATP RKO IC50/EC50: assay number 29
DLD-1 = test: cells; assay type: cell-based; conditions: basal; for Basal_Viability ATP DLD-1 IC50/EC50: assay number 23
HT-29 = test: cells; assay type: cell-based; conditions: basal; for Basal_Viability ATP HT-29 IC50/EC50: assay number 28
[3] = test system: ECFC/ADSC co-culture cell nuclei number
SNU-C1 = test: cells; assay type: cell-based; conditions: basal; for Basal_Viability ATP SNU-C1 IC50/EC50: assay number 30

Cc1cccc(Nc2cc(Cl)nc(SCC(=O)O)n2)c1C [NCGC00014702-15]
IC50/EC50, Basal_Viability ATP HCT116 (assay number 25) (HCT116): > 20 µM
IC50/EC50, VEGF_ADSC\ECFC Angio CD31 TubeArea (assay number 2) [1]: > 10 µM
IC50/EC50, GSK3b inh pretreated_Viability ATP HCT116 (assay number 26) ([2]; GSK3b inh pretreated): > 20 µM
IC50/EC50, Basal_Viability ATP SW480 (assay number 24) (SW480): > 20 µM
IC50/EC50, Basal_Viability ATP Colo 320 (assay number 27) (Colo320): > 20 µM
IC50/EC50, Basal_Viability ATP RKO (assay number 29) (RKO): > 20 µM
IC50/EC50, Basal_Viability ATP DLD-1 (assay number 23) (DLD-1): > 20 µM
IC50/EC50, Basal_Viability ATP HT-29 (assay number 28) (HT-29): > 20 µM
IC50/EC50, VEGF_ADSC\ECFC Angio Hoechst NucArea (assay number 3) [3]: > 10 µM
IC50/EC50, Basal_Viability ATP SNU-C1 (assay number 30) (SNU-C1): > 20 µM

CN1CCN(C2Cc3ccccc3Sc3ccc(Cl)cc32)CC1.O=C(O)/C=C\C(=O)O (stereo not drawn) [NCGC00015759-05]
Basal_Viability ATP HCT116 IC50/EC50 (HCT116): 9.1662 µM
VEGF_ADSC\ECFC Angio CD31 TubeArea IC50/EC50 [1]: 5.2302 µM
GSK3b inh pretreated_Viability ATP HCT116 IC50/EC50 [2]: 8.3951 µM
Basal_Viability ATP SW480 IC50/EC50 (SW480): 6.3146 µM
Basal_Viability ATP Colo 320 IC50/EC50 (Colo320): > 6.6667 µM
Basal_Viability ATP RKO IC50/EC50 (RKO): > 20 µM
Basal_Viability ATP DLD-1 IC50/EC50 (DLD-1): > 20 µM
Basal_Viability ATP HT-29 IC50/EC50 (HT-29): 8.001 µM
VEGF_ADSC\ECFC Angio Hoechst NucArea IC50/EC50 [3]: > 10 µM
Basal_Viability ATP SNU-C1 IC50/EC50 (SNU-C1): 7.8734 µM

CCCn1cnc2c1c(=O)n(CCCCC(C)=O)c(=O)n2C [NCGC00015861-09]
Basal_Viability ATP HCT116 IC50/EC50 (HCT116): > 20 µM
VEGF_ADSC\ECFC Angio CD31 TubeArea IC50/EC50 [1]: > 10 µM
GSK3b inh pretreated_Viability ATP HCT116 IC50/EC50 [2]: > 20 µM
Basal_Viability ATP SW480 IC50/EC50 (SW480): > 20 µM
Basal_Viability ATP Colo 320 IC50/EC50 (Colo320): > 20 µM
Basal_Viability ATP RKO IC50/EC50 (RKO): > 20 µM
Basal_Viability ATP DLD-1 IC50/EC50 (DLD-1): > 20 µM
Basal_Viability ATP HT-29 IC50/EC50 (HT-29): > 20 µM
VEGF_ADSC\ECFC Angio Hoechst NucArea IC50/EC50 [3]: > 10 µM
Basal_Viability ATP SNU-C1 IC50/EC50 (SNU-C1): > 20 µM

O=C(CCCN1CCC(O)(c2cccc(C(F)(F)F)c2)CC1)c1ccc(F)cc1 [NCGC00015983-04]
Basal_Viability ATP HCT116 IC50/EC50 (HCT116): > 20 µM
VEGF_ADSC\ECFC Angio CD31 TubeArea IC50/EC50 [1]: > 10 µM
GSK3b inh pretreated_Viability ATP HCT116 IC50/EC50 [2]: > 20 µM
Basal_Viability ATP SW480 IC50/EC50 (SW480): > 20 µM
Basal_Viability ATP Colo 320 IC50/EC50 (Colo320): > 20 µM
Basal_Viability ATP RKO IC50/EC50 (RKO): > 20 µM
Basal_Viability ATP DLD-1 IC50/EC50 (DLD-1): > 20 µM
Basal_Viability ATP HT-29 IC50/EC50 (HT-29): > 20 µM
VEGF_ADSC\ECFC Angio Hoechst NucArea IC50/EC50 [3]: > 10 µM
Basal_Viability ATP SNU-C1 IC50/EC50 (SNU-C1): > 20 µM

CSc1ccc2c(c1)N(CCC1CCCCN1C)c1ccccc1S2 (stereo not drawn) [NCGC00016059-13]
Basal_Viability ATP HCT116 IC50/EC50 (HCT116): > 20 µM
VEGF_ADSC\ECFC Angio CD31 TubeArea IC50/EC50 [1]: > 10 µM
GSK3b inh pretreated_Viability ATP HCT116 IC50/EC50 [2]: 8.1146 µM
Basal_Viability ATP SW480 IC50/EC50 (SW480): 3.7076 µM
Basal_Viability ATP Colo 320 IC50/EC50 (Colo320): 7.9244 µM
Basal_Viability ATP RKO IC50/EC50 (RKO): 5.4868 µM
Basal_Viability ATP DLD-1 IC50/EC50 (DLD-1): > 20 µM
Basal_Viability ATP HT-29 IC50/EC50 (HT-29): 5.8969 µM
VEGF_ADSC\ECFC Angio Hoechst NucArea IC50/EC50 [3]: 9.242 µM
Basal_Viability ATP SNU-C1 IC50/EC50 (SNU-C1): 2.905 µM

COc1ccc2c(c1)c1c3n2CCN(C)C3=NCC1 [NCGC00072886-03]
Basal_Viability ATP HCT116 IC50/EC50 (HCT116): > 20 µM
VEGF_ADSC\ECFC Angio CD31 TubeArea IC50/EC50 [1]: > 10 µM
GSK3b inh pretreated_Viability ATP HCT116 IC50/EC50 [2]: > 20 µM
Basal_Viability ATP SW480 IC50/EC50 (SW480): > 20 µM
Basal_Viability ATP Colo 320 IC50/EC50 (Colo320): > 20 µM
Basal_Viability ATP RKO IC50/EC50 (RKO): > 20 µM
Basal_Viability ATP DLD-1 IC50/EC50 (DLD-1): > 20 µM
Basal_Viability ATP HT-29 IC50/EC50 (HT-29): > 20 µM
VEGF_ADSC\ECFC Angio Hoechst NucArea IC50/EC50 [3]: > 10 µM
Basal_Viability ATP SNU-C1 IC50/EC50 (SNU-C1): > 20 µM
